{"source": "patent US20260232692A1", "about": "“Methods Of Treating Cancer Using BCL-2 Inhibitors With Iron And Heme Supplementation Therapies” (Emory University, priority 2023, published 2026)", "key": {"VS t(11; 14) cell lines": {"tested_on": "VS t(11; 14) cell lines", "test": "Rescue of FAC mediated cell death in VS t(11;14) cell lines", "assay_type": "cell-based", "conditions": "in the presence and absence of venetoclax", "procedure": "Intracellular iron overload, ROS mediated lipid peroxidation, and loss of GSH/GPX4 mediated antioxidant defenses are all features of ferroptosis. Experiments were performed to determine whether FAC supplementation in VS t(11; 14) MM promotes cell death via ferroptosis. VS t(11; 14) cell lines were treated with a ferrostatin (Fn-1), a synthetic antioxidant that acts via a reductive mechanism to prevent damage to membrane lipids and thereby, inhibits cell death. Inhibiting ferroptosis was able to fully rescue the cell death induced by FAC both in the presence and absence of venetoclax (FIG. 8B). Boc-D-FMK is a caspase inhibitor that inhibits apoptosis."}, "[1]": {"tested_on": "venetoclax sensitive (VS) multiple myeloma (MM) cell lines", "test": "Hemin/5-ALA supplementation and Ven sensitivity in VS MM cell lines, Annexin V/DAPI flow cytometry", "assay_type": "cell-based", "conditions": "50 μM Hemin/5-ALA pre-treatment 24 hours, then Ven 24 hrs", "procedure": "Cell death/viability was assessed by Annexin V/DAPI flow cytometric staining.\nTo test the necessity for reduced heme synthesis for Ven sensitivity in t(11; 14) MM, Ven treated cells were supplemented with either the heme synthesis precursor 5-ALA or hemin (oxidized heme and active ingredient of clinically approved Panhematin™)."}, "MEK-ERK-mTORC1 signaling": {"tested_on": "MEK-ERK-mTORC1 signaling", "test": "MEK-ERK-mTORC1 signaling in whole cell lysates of VS MM treated with hemin", "assay_type": "cell-based", "conditions": "50 μM hemin and/or 0.05 μM Ven for 18 h", "procedure": "Whole cell lysates of indicated lines were treated with 50 μM hemin and/or 0.05 μM Ven for 18 h. Indicated VS cells were treated with 50 µM hemin and 0.05 μM Ven and RAF, MEK, or ERK-inhibitors. Cell death/viability was evaluated by Annexin V/DAPI flow cytometric staining."}, "[2]": {"tested_on": "venetoclax sensitive acute myeloid leukemia (AML) cell lines", "test": "Hemin supplementation and venetoclax sensitivity in AML cell lines", "assay_type": "cell-based"}, "[3]": {"tested_on": "VS t(11; 14) MM cell lines", "test": "Growth/viability of VS t(11;14) MM cell lines under iron chelation or supplementation (CellTiter-Glo 3D)", "assay_type": "cell-based", "conditions": "iron chelation with DFO or supplementation with FAC (500 μM FAC up to 96 h, FIG. 7A)", "procedure": "Cells were treated with 500 μM FAC up to 96 h and assessed for viability using CellTiter-Glo® 3D Cell Viability Assay.\nIron is a cofactor for the maintenance of ETC activity. The impact of modulating iron levels either by chelation with deferoxamine (DFO) or supplementation with ferric ammonium citrate (FAC) was assessed in a panel of VS t(11; 14) and VR non t(11; 14) MM cell lines."}, "[4]": {"tested_on": "reactive oxygen species (ROS) in VS t(11; 14) MM", "conditions": "FAC treated VS t(11;14) MM", "description": "(§1) Free or excess intracellular iron is a potent inducer of reactive oxygen species (ROS) and oxidative stress."}, "[5]": {"tested_on": "iron homeostasis-related protein in VS t(11; 14) cell lines", "procedure": "FIG. 8B show data on the expression of iron homeostasis-related protein in whole cell lysates supplemented with 500 μM FAC for 72 h in indicated cell lines by immunoblotting using actin as a loading control. Indicated cell lines were treated with a ferroptotic inhibitor, ferrostatin (Fn-1).\nas §1"}, "t(11; 14) patient sample": {"tested_on": "t(11; 14) patient sample", "conditions": "FAC 250 μM and 500 μM, venetoclax 0.001, 0.005 and 0.01 μM, FIG. 7C"}}, "note": "Entries after “also recorded” stand apart in the source; their conditions may differ.", "data": [{"compound": "COC(=O)CC(NC(=O)OC(C)(C)C)C(=O)CF", "note": "[Boc-D-FMK]", "values": [{"measurement": "rescue of cell death induced by FAC", "setting": "VS t(11; 14) cell lines", "result": "not able to rescue"}]}, {"compound": "CCOC(=O)c1ccc(NC2CCCCC2)c(N)c1", "note": "[ferrostatin]", "values": [{"measurement": "rescue of cell death induced by FAC", "setting": "VS t(11; 14) cell lines", "result": "sufficient to mitigate; also recorded: fully rescue"}]}, {"compound": "C=CC1=C(C)c2cc3[n-]c(cc4[n-]c(cc5nc(cc1n2)C(C)=C5C=C)c(C)c4CCC(=O)O)c(CCC(=O)O)c3C.[Fe+2]", "note": "[hemin, [7,12-diethenyl-3,8,13,17-tetramethyl-21H,23H-porphine-2,18-dipropanoato(2-)-N21,N22,N23,N24] iron]", "values": [{"measurement": "reversal (rescue) of Ven sensitivity", "setting": "[1]", "result": "significantly reversed; also recorded: reverses"}, {"measurement": "MEK-ERK-mTORC1 signaling", "setting": "MEK-ERK-mTORC1 signaling", "result": "restores"}, {"measurement": "reversal of venetoclax sensitivity", "setting": "[2]", "result": "reverses"}]}, {"compound": "ferric ammonium citrate [FAC]", "values": [{"measurement": "effect on growth/proliferation of VS cell lines", "setting": "[3]", "result": "specifically inhibit the proliferation; also recorded: growth suppressive effect"}, {"measurement": "cytosolic ROS levels", "setting": "[4]", "result": "not in cytosolic ROS levels"}, {"measurement": "mitochondrial ROS", "setting": "[4]; 48 h", "result": "significant elevation"}, {"measurement": "cystine-glutamate antiporter SLC7A11 expression", "setting": "[5]; FAC treatment", "result": "not altered"}, {"measurement": "iron importer TFR1 expression", "setting": "[5]; FAC treatment", "result": "reduction"}, {"measurement": "iron storage protein ferritin expression", "setting": "[5]; FAC treatment", "result": "increase"}, {"measurement": "glutathione peroxidase 4 (GPX4) protein expression", "setting": "[5]; all VS t(11;14) cell lines, 500 μM FAC for 72 h", "result": "consistent reduction"}, {"measurement": "sensitivity to venetoclax with iron supplementation", "setting": "t(11; 14) patient sample", "result": "A similar response"}]}]}
